According to the supplement of paper PMC10307832:

Key:
Assay in all cases: relative viability (nuclei count vs DMSO), 5 days (fraction); higher = more cells survive
[1] = compound: NS(=O)(=O)OC[C@@H]1C[C@@H](n2ccc3c(N[C@H]4CCc5ccccc54)ncnc32)C[C@@H]1O [MLN4924] + CC(=O)Nc1cccc(-n2c(=O)n(C3CC3)c(=O)c3c(Nc4ccc(I)cc4F)n(C)c(=O)c(C)c32)c1 [Trametinib] (partner 0.02 µM)
Outline: (§1)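 One day after seeding in 1536-well plates, lung cancer cell lines were dosed by pin tool. Dosing was either single-drug or a fixed anchor-drug dose plus five library-drug doses (not always all listed) in √10 steps. After 5 days, nuclei were stained in one fix-and-stain step and counted on 4× images, and relative viability is the nuclei count of treated wells over that of vehicle wells, given as the median of duplicate plates.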

[2] = compound: NS(=O)(=O)OC[C@@H]1C[C@@H](n2ccc3c(N[C@H]4CCc5ccccc54)ncnc32)C[C@@H]1O [MLN4924] + C[C@@H](Oc1cc(-c2cnn(C3CCNCC3)c2)cnc1N)c1c(Cl)ccc(F)c1Cl [Crizotinib] (partner 1 µM)
Outline: as §1

[3] = compound: C1CC(C1)(C(=O)O)C(=O)O.[NH2-].[NH2-].[Pt+2] [Carboplatin] + CS(=O)(=O)CCNCc1ccc(-c2ccc3ncnc(Nc4ccc(OCc5cccc(F)c5)c(Cl)c4)c3c2)o1 [Lapatinib] (partner 2 µM)
Outline: as §1

[4] = compound: NS(=O)(=O)OC[C@@H]1C[C@@H](n2ccc3c(N[C@H]4CCc5ccccc54)ncnc32)C[C@@H]1O [MLN4924] + CC(=O)c1c(C)c2cnc(Nc3ccc(N4CCNCC4)cn3)nc2n(C2CCCC2)c1=O [Palbociclib] (partner 0.5 µM)
Outline: as §1

| Cell Line | relative viability ([1]; first compound 0.04 µM) | relative viability ([1]; first compound 0.1265 µM) | relative viability ([1]; first compound 0.4 µM) | relative viability ([1]; first compound 1.265 µM) | relative viability ([1]; first compound 4 µM) | relative viability ([2]; first compound 0.04 µM) | relative viability ([2]; first compound 0.1265 µM) | relative viability ([2]; first compound 0.4 µM) | relative viability ([2]; first compound 1.265 µM) | relative viability ([2]; first compound 4 µM) | relative viability ([3]; first compound 0.08 µM) | relative viability ([3]; first compound 0.253 µM) | relative viability ([3]; first compound 0.8 µM) | relative viability ([3]; first compound 2.53 µM) | relative viability ([3]; first compound 8 µM) | relative viability ([4]; first compound 0.04 µM) | relative viability ([4]; first compound 0.1265 µM) | relative viability ([4]; first compound 0.4 µM) | relative viability ([4]; first compound 1.265 µM) | relative viability ([4]; first compound 4 µM) |
| --- | --- | --- | --- | --- | --- | --- | --- | --- | --- | --- | --- | --- | --- | --- | --- | --- | --- | --- | --- | --- |
| NCI-H2405 | 0.882 | 0.893 | 0.621 | 0.292 | 0.254 | 0.797 | 0.667 | 0.478 | 0.266 | 0.242 | 1.31 | 1.06 | 1.12 | 1.15 | 0.904 | 0.516 | 0.456 | 0.41 | 0.22 | 0.252 |
| SK-MES-1 | 0.631 | 0.676 | 0.727 | 0.295 | 0.255 | 1.02 | 0.842 | 0.702 | 0.228 | 0.22 | 0.469 | 0.475 | 0.506 | 0.548 | 0.472 | 0.294 | 0.207 | 0.225 | 0.128 | 0.203 |
| NCI-H2170 | 0.879 | 0.537 | 0.467 | 0.155 | 0.126 | 1.2 | 0.599 | 0.507 | 0.16 | 0.185 | 0.273 | 0.279 | 0.269 | 0.257 | 0.262 | 0.392 | 0.242 | 0.253 | 0.109 | 0.124 |
| NCI-H322M | 0.662 | 0.735 | 1.03 | 0.452 | 0.389 | 0.85 | 0.779 | 0.834 | 0.262 | 0.399 | 0.653 | 0.639 | 0.55 | 0.561 | 0.609 | 0.56 | 0.656 | 0.504 | 0.389 | 0.395 |
| NCI-H2085 | 0.486 | 0.509 | 0.575 | 0.559 | 0.293 | 0.702 | 0.83 | 0.662 | 0.676 | 0.35 | 0.8 | 0.897 | 0.787 | 0.748 | 0.815 | 0.489 | 0.505 | 0.587 | 0.556 | 0.416 |
| PC-3 [JPC-3] | 0.625 | 0.727 | 0.495 | 0.538 | 0.374 | 0.986 | 0.909 | 0.477 | 0.34 | 0.293 | 0.451 | 0.458 | 0.465 | 0.468 | 0.446 | 0.556 | 0.53 | 0.373 | 0.346 | 0.46 |
| NCI-H1355 | 0.474 | 0.477 | 0.444 | 0.243 | 0.232 | 1.04 | 1.03 | 0.963 | 0.484 | 0.208 | 1.12 | 1.11 | 1.09 | 1.06 | 0.93 | 0.418 | 0.409 | 0.445 | 0.234 | 0.195 |
| NCI-H1650 | 0.597 | 0.32 | 0.232 | 0.131 | 0.156 | 1.04 | 0.658 | 0.333 | 0.202 | 0.166 | 0.944 | 0.878 | 0.825 | 0.795 | 0.661 | 0.286 | 0.221 | 0.19 | 0.131 | 0.136 |
| NCI-H838 | 0.438 | 0.331 | 0.172 | 0.0938 | 0.126 | 0.635 | 0.535 | 0.235 | 0.154 | 0.139 | 1.05 | 1.1 | 1.04 | 0.951 | 1.04 | 0.253 | 0.256 | 0.175 | 0.138 | 0.138 |
| NCI-H1755 | 0.813 | 0.749 | 0.801 | 0.348 | 0.215 | 0.798 | 0.761 | 0.52 | 0.181 | 0.154 | 1.06 | 1.1 | 1.11 | 1.09 | 0.995 | 0.4 | 0.442 | 0.314 | 0.209 | 0.257 |
| NCI-H1651 | 0.799 | 0.853 | 0.81 | 0.512 | 0.185 | 0.913 | 0.85 | 0.76 | 0.357 | 0.167 | 0.852 | 0.743 | 0.965 | 0.837 | 0.497 | 0.521 | 0.54 | 0.569 | 0.374 | 0.191 |
| NCI-H650 | 0.894 | 0.76 | 0.574 | 0.201 | 0.176 | 0.676 | 0.402 | 0.289 | 0.135 | 0.179 | 1.06 | 0.852 | 0.876 | 0.976 | 0.521 | 0.307 | 0.182 | 0.159 | 0.136 | 0.166 |
| LK-2 | 0.699 | 0.677 | 0.618 | 0.245 | 0.212 | 0.222 | 0.319 | 0.321 | 0.27 | 0.236 | 1.17 | 0.956 | 0.858 | 0.792 | 0.809 | 0.508 | 0.342 | 0.284 | 0.138 | 0.161 |
| HCC-366 | 0.369 | 0.376 | 0.514 | 0.305 | 0.0404 | 0.603 | 0.66 | 0.797 | 0.211 | 0.0183 | 1.08 | 1.01 | 0.988 | 0.963 | 0.863 | 0.389 | 0.374 | 0.336 | 0.167 | 0.0328 |
| PC-14 | 1.01 | 0.624 | 0.259 | 0.0838 | 0.0619 | 0.872 | 0.888 | 0.591 | 0.161 | 0.109 | 0.312 | 0.368 | 0.33 | 0.354 | 0.251 | 0.463 | 0.416 | 0.138 | 0.0525 | 0.0516 |
